Reference: patent US20110281726A1, “GLEDITSIA AMORPHOIDES SEEDLESS POD EXTRACT AND ITS USE AS AN AGRICULTURAL ADJUVANT” (IDEASUPPLY.COM ARGENTINA S.A., priority 2005, published 2011)

How the values were obtained:
Assay type in all cases: in vivo
[1] = test system: alfalfa (Medicago Sativa L.); assay: Influence of CU co-adjuvant on the activity of defoliant Paraquat in alfalfa; settings: Paraquat 1 l/ha, CU 0.25% v/v, emulsion oil 1% v/v, five days after treatment, day-night temperatures 30/21° C.
Description: Another application with agrochemicals was conducted by assessing the influence of the “CU” co-adjuvant of the invention on the activity of defoliant “Paraquat” in alfalfa (Medicago Sativa L.)
For such purpose, the effect of the addition of the surfactant Coronillo Ultra (CU) at 0.25% v/v and emulsion oil at 1% v/v to defoliant Paraquat at a 1 l/ha concentration, in conditions of high and low temperatures during both the day and at night on alfalfa was assessed.

[2] = test system: leafmining moth (Phyllocnistis Citrella Stainton); assay: Control of leafmining moth: injection into tunnels and application on foliar surface
Description: Efficacy of “avemectin” and the CU co-adjuvant of the invention to control leafmining moth (Phyllocnistis Citrella Stainton.)
Two assays were designed in order to assess the effect of two concentrations of the Coronillo Ultra surfactant and combinations of both products to control leafmining moth in citrus (Phyllocnistis Citrella Stainton.)
One of the assays was geared to testing the action of the direct contact of the products, both pure and in mixtures, with the larvae of the second and third stages by injecting the solution into the tunnels. The second assay aimed at assessing the effect of its application on the foliar surface affected with tunnels. In both assays, methylene blue dye was used as tracer to assess the flow of the solution inside the tunnel and the larvae.
In the treatments applied over the foliar surface, effects were noticed only when the active penetrated the epidermis and came into contact with the insect inside the tunnel.

[3] = test system: leafmining moth (Phyllocnistis Citrella Stainton); assay: Control of leafmining moth: field test in a five-year vegetable garden
Description: Finally, the above treatments were tested on the field, in a five-year vegetable garden.

Compound | defoliation [1] | effect of avemectin applied over the foliar surface ([2]; high concentrations) | effect of avemectin when injected ([2]; low doses) | control percentage after 14 days [3]
C[n+]1ccc(-c2cc[n+](C)cc2)cc1 [Paraquat] | 17% |  |  | 
avemectin |  | effective | same effect | low control percentage
